According to ChEMBL document CHEMBL1828567, “2-Phenyl and 2-heterocyclic-4-(3-(pyridin-2-yl)-1H-pyrazol-4-yl)pyridines as inhibitors of TGF-β1 and activin A signalling” (Bioorg Med Chem Lett, 2011):

Target: T1, TGF-beta receptor type-1 (Homo sapiens, UniProt P36897)
T1 sequence (P36897 whole entry): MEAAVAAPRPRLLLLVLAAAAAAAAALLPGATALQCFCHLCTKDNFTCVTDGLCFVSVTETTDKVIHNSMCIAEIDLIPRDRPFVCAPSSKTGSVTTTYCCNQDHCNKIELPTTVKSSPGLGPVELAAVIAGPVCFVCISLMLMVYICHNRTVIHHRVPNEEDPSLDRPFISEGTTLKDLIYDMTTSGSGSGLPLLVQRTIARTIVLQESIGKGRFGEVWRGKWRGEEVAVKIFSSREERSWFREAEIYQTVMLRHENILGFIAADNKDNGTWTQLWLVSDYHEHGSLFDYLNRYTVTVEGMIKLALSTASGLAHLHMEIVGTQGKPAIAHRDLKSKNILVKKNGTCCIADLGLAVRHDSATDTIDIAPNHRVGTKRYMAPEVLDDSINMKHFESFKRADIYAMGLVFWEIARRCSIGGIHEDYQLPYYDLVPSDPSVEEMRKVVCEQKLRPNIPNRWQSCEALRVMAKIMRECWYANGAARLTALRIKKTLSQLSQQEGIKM
Experiment: Inhibition of TGF-beta1 signaling in human HEK293 cells transfected with luciferase and FAST-2 gene expression vector A3-LUX after 16 hrs by luciferase reporter gene assay
Assay type: cell-based

IC50 [nM] | SMILES
68 | Cn1cc(-c2cc(-c3c[nH]nc3-c3ccccn3)ccn2)cn1
77 | c1ccc(-c2n[nH]cc2-c2ccnc(-n3cccn3)c2)nc1
88 | c1ccc(-c2n[nH]cc2-c2ccnc(-n3ccnc3)c2)nc1
11 | CN(C)CCCOc1ccc(-c2cc(-c3c[nH]nc3-c3ccccn3)ccn2)cn1
32 | CN1CCN(c2ccc(-c3cc(-c4c[nH]nc4-c4ccccn4)ccn3)cn2)CC1
19 | CN(C)CCOc1ccc(-c2cc(-c3c[nH]nc3-c3ccccn3)ccn2)cc1

Target: T2, Activin receptor type-1B (Homo sapiens, UniProt P36896)
T2 sequence (P36896 whole entry): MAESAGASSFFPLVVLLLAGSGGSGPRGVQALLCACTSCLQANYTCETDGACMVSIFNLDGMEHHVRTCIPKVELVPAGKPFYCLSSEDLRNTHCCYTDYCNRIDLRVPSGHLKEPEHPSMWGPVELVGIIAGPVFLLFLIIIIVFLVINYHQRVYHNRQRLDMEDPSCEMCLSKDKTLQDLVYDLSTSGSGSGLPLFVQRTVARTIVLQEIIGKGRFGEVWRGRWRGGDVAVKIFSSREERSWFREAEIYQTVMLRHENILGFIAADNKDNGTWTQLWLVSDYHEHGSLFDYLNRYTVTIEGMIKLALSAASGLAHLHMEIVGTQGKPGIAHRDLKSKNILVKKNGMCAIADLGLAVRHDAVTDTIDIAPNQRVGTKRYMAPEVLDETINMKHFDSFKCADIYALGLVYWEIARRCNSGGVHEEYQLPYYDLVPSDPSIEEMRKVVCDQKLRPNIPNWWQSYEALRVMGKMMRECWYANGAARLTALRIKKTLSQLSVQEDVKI
Experiment: Inhibition of Activin A in human HEK293 cells transfected with luciferase and FAST-2 gene expression vector A3-LUX after 16 hrs by luciferase reporter gene assay
Assay type: cell-based

IC50 [nM] | SMILES
> 1000 | O=C(NC1CCOCC1)c1ccc(-c2cc(-c3c[nH]nc3-c3ccccn3)ccn2)cc1
